Measured values taken from article PMC8406801, “Naringenin Inhibits Platelet Activation and Arterial Thrombosis Through Inhibition of Phosphoinositide 3-Kinase and Cyclic Nucleotide Signaling” (Frontiers in Pharmacology, 2021).
“And” between values parts separate entries of the source, which are not always exact repeats. Identical values can stand only once. Like-named read-outs stand apart in the source and are kept apart here.

Legend:
washed rat platelets = experiment: Thrombin (0.2 U/mL)-induced aggregation of washed platelets; assay type: cell-based; settings: for Aggregation (%) / Aggregation % of control: washed platelets, single replicates; for Aggregation (%): raw data
Protocol: Washed rat platelets were prepared as described previously ([Gao et al., 2011]) with a minor modification. Briefly, rat blood was drawn from the abdominal aorta into the siliconized vacutainers containing 1:9 (v/v) 3.8% sodium citrate, supplemented with 100 ng/ml prostaglandin E1 (PGE1) and centrifuged at 300 × g for 6 min at room temperature. Platelet-rich plasma (PRP) was obtained, and after the addition of 100 ng/ml PGE1, platelets were pelleted at 900 × g for 10 min. Platelets were washed once in Tyrode’s buffer (12 mM NaHCO3, 138 mM NaCl, 5.5 mM glucose, 2.9 mM KCl, 2 mM MgCl2, 0.42 mM NaH2PO4, 10 mM HEPES, pH 7.4) containing 100 ng/ml PGE1, and finally resuspended in Tyrode’s buffer containing 0.02 U/mL apyrase to a final concentration of 4×10^8 cells/mL. Washed platelets were preincubated with vehicle (0.4% dimethyl sulfoxide) or various concentrations of naringenin in the presence of 2 mM CaCl2 for 5 min at 37°C, and then further stimulated by ADP (10 μM), thrombin (0.2 U/mL) or collagen (2 μg/ml). The maximum platelet aggregation rate was detected within 5 min with continuous stirring.
FIGURE 1 Effects of naringenin and naringin on platelet aggregation. Chemical structure of naringin (A) and naringenin (B). The effects of naringin (C) or naringenin (D) on PRP were measured following stimulation with 10 μmol/L ADP. Rat washed platelet aggregation performed with or without different concentrations of naringin (E) or naringenin (F) was recorded after stimulation with 10 μmol/L ADP. Similarly, Washed platelet aggregation performed with vehicle or various concentrations of naringenin was recorded after stimulation with 0.2 U/mL thrombin (G) or 2 μg/ml collagen (H). WP represents washed platelets. Data are expressed as means ± SD (n = 6), the level of aggregation obtained at 5 min with vehicle-treated samples (0 μM) was taken as 100%. *p < 0.05, **p < 0.01, ***p < 0.001 compared with the vehicle control group.

PI3Kp110β = experiment: Immunoblotting of PI3Kp110β in ADP-stimulated washed platelets; assay type: cell-based, rat; settings: ADP 10 μmol/L, single replicates; for PI3Kp110β / GAPDH: raw data
Protocol: For in vitro platelet aggregation, aliquots of washed platelets were preincubated with vehicle or various concentrations of naringenin for 5 min and stimulated with ADP (10 μmol/L) under stirring at 37°C for 5 min. For ex vivo platelet aggregation, PRP was incubated at 37°C for 5 min and stimulated with ADP (5 μmol/L) under stirring at 37 °C. The platelet aggregation was terminated by adding ethylenediaminetetraacetic acid (EDTA; 10 mM). Total protein was prepared using RIPA lysis buffer and protein content was determined by bicinchoninic acid (BCA) protein assay kit. Equal amounts of platelet proteins (30 μg) were separated on 10% SDS polyacrylamide gel electrophoresis (SDS-PAGE) and then transferred to poly vinylidene difluoride (PVDF) membranes and subjected to western blot. Blots were blocked with TBS-Tween 20 containing 5% BSA and probed with primary antibodies diluted in blocking solution at 4°C overnight followed by incubation with the corresponding HRP secondary antibodies. The protein bands were visualized using enhanced chemiluminescence (ECL).
FIGURE 4 Naringenin inhibits PI3K-mediated signaling in ADP-induced platelets. Washed rat platelets were preincubated without or with naringenin at 37°C for 5 min, and then stimulated with ADP (10 μmol/L) under stirring for 5 min. Platelet proteins were then extracted and analyzed by immunoblotting using PI3Kp110β antibody (A) and phospho-specific antibodies such as Akt^Ser473 (B), Akt^Thr308 (C), ERK1/2^Thr202/Tyr204 (D) and GSK3β^Ser9 (E). Total level of GAPDH was measured on each sample as a loading control. The blots shown are representative of three separate experiments. The relative protein expression levels were quantified by ImageJ 1.47v software. The level of relative protein expression obtained with vehicle control (0 μM) was taken as 1. R represents the level of relative protein expression in resting platelets. Data are expressed as means ± SD (n = 3). *p < 0.05, **p < 0.01, ***p < 0.001 compared with the vehicle control group.

[1] = test system: PDE extracts prepared from rat PRP (cAMP hydrolysis); experiment: Phosphodiesterase activity in platelet extracts, hydrolysis of cAMP (HPLC); assay type: biochemical; settings: vehicle = 100%, single replicates
Protocol: (§1) The effects of naringenin on PDE activity were determined using high-performance liquid chromatography (HPLC) ([Hu et al., 2011]). Briefly, PRP was pelleted by centrifugation for 10 min at 900 × g and homogenized in PBS containing 0.1% Triton X-100 using an ultrasonic homogenizer. After centrifugation at 12,000 × g for 20 min at 4°C, the supernatant was subjected to PDE activity assay.
(§2) DMSO vehicle or different concentrations naringenin were added to assay buffer (137 mM NaCl, 2.7 mM KCl, 8.8 mM Na2HPO4, 1.5 mM KH2PO4, 1 mM CaCl2, 1 mM MgCl2, pH 7,4) containing cAMP or cGMP. The reaction was initiated by adding 30 μL PDE extracts prepared from rat PRP as described above. Some extracts were boiled for 3 min to inactivate PDE before addition. After incubation for 30 min at […], the reaction was terminated by boiling the mixture for 3 min. Subsequently, the mixture was cooled on ice followed by centrifugation at 12,000 × g for 20 min at 4°C. The supernatant was subjected cAMP or cGMP assay using HPLC. PDE activity was expressed as percentages of the hydrolysis of cAMP or cGMP.

[2] = test system: PDE extracts prepared from rat PRP (cGMP hydrolysis); experiment: Phosphodiesterase activity in platelet extracts, hydrolysis of cGMP (HPLC); assay type: biochemical; settings: vehicle = 100%, single replicates
Protocol: as §1, §2

O=C1C[C@@H](c2ccc(O)cc2)Oc2cc(O)cc(O)c21 [Naringenin]
IC50 (washed rat platelets): ~684 µM
IC50 (washed rat platelets; Rattus norvegicus, Platelet): 684 ± 80.8 µM
Aggregation (%) (washed rat platelets; 100 μM): 77.1% and 76.2% and 52.9% and 66.7% and 72.2% and 88.4%
Aggregation % of control (washed rat platelets; 100 μM): 95.0 % of control and 93.9 % of control and 65.2 % of control and 82.2 % of control and 88.9 % of control and 108.9 % of control
Aggregation (%) (washed rat platelets; 200 μM): 79.6% and 67.1% and 56.9% and 52.0% and 48.0% and 62.4%
Aggregation % of control (washed rat platelets; 200 μM): 98.1 % of control and 82.7 % of control and 70.1 % of control and 64.1 % of control and 59.1 % of control and 76.9 % of control
Aggregation (%) (washed rat platelets; 400 μM): 77.0% and 53.3% and 68.0% and 42.9% and 66.7% and 43.5%
Aggregation % of control (washed rat platelets; 400 μM): 94.9 % of control and 65.7 % of control and 83.8 % of control and 52.9 % of control and 82.2 % of control and 53.6 % of control
Aggregation (%) (washed rat platelets; 800 μM): 45.5% and 30.8% and 28.0% and 42.4% and 22.5% and 36.0%
Aggregation % of control (washed rat platelets; 800 μM): 56.1 % of control and 37.9 % of control and 34.5 % of control and 52.2 % of control and 27.7 % of control and 44.4 % of control
PI3Kp110β / GAPDH (PI3Kp110β; 100 μM): 0.2747 and 0.1851 and 0.4122
PI3Kp110β / GAPDH (Fold to ADP only) (PI3Kp110β; 100 μM): 0.5384 Fold to ADP only and 0.3629 Fold to ADP only and 0.8080 Fold to ADP only
PI3Kp110β / GAPDH (PI3Kp110β; 200 μM): 0.2677 and 0.1570 and 0.3210
PI3Kp110β / GAPDH (Fold to ADP only) (PI3Kp110β; 200 μM): 0.5248 Fold to ADP only and 0.3077 Fold to ADP only and 0.6292 Fold to ADP only
PI3Kp110β / GAPDH (PI3Kp110β; 400 μM): 0.1072 and 0.1459 and 0.2766
PI3Kp110β / GAPDH (Fold to ADP only) (PI3Kp110β; 400 μM): 0.2102 Fold to ADP only and 0.2861 Fold to ADP only and 0.5422 Fold to ADP only
PI3Kp110β / GAPDH (PI3Kp110β; 800 μM): 0.0408 and 0.0426 and 0.1130
PI3Kp110β / GAPDH (Fold to ADP only) (PI3Kp110β; 800 μM): 0.0801 Fold to ADP only and 0.0835 Fold to ADP only and 0.2214 Fold to ADP only
PDE activity (%) ([1]; 100 μM): 78.12% and 75.15% and 93.45%
PDE activity (%) ([1]; 200 μM): 76.39% and 84.94% and 63.29%
PDE activity (%) ([1]; 400 μM): 79.01% and 85.41% and 68.34%
PDE activity (%) ([1]; 800 μM): 43.72% and 69.43% and 76.24%
PDE activity (%) ([2]; 100 μM): 55.89% and 98.26% and 70.79%
PDE activity (%) ([2]; 200 μM): 55.23% and 54.30% and 66.68%
PDE activity (%) ([2]; 400 μM): 64.97% and 53.69% and 55.23%
PDE activity (%) ([2]; 800 μM): 56.89% and 50.38% and 49.55%
